Measured values as given in patent US20260042764A1, “COMPOSITIONS AND METHODS FOR INHIBITION OF KRAS” (TheRas, Inc., priority 2022, published 2026).

Assays:
[1] = biological target: T1, Avi-KRAS G12D (1-169) GppNHp/RAF1 RBD-3xFLAG (52-151) (Homo sapiens, UniProt P01116, G12D); test: Raf1-KRAS G12D-GppNHP disruption HTRF assay (Biological Example 1); format: binding; conditions: KRAS G12D, GppNHp-loaded; Table 11
T1 construct: Avi-KRAS G12D (1-169)
In short: (§1)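 Read-out is HTRF signal of the KRAS–RAF1 RBD complex, reported as percentage of activity relative to DMSO (100%). Protein mix and detection reagents each incubated 1 h at room temperature with 700 rpm shaking. Buffer: 50 mM Tris pH 7.5, 100 mM NaCl, 5 mM MgCl2, 0.1% BSA, 0.01% Tween, 10% DMSO.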

[2] = biological target: T2, Avi-KRAS G12R (1-169) GppNHp/RAF1 RBD-3xFLAG (52-151) (Homo sapiens, UniProt P01116, G12R); test: Raf1-KRAS G12R-GppNHP disruption HTRF assay (Biological Example 1); format: binding; conditions: KRAS G12R, GppNHp-loaded; Table 11
T2 construct: Avi-KRAS G12R (1-169)
In short: as §1

[3] = biological target: T3, Avi-KRAS G12V (1-169) GppNHp/RAF1 RBD-3xFLAG (52-151) (Homo sapiens, UniProt P01116, G12V); test: Raf1-KRAS G12V-GppNHP disruption HTRF assay (Biological Example 1); format: binding; conditions: KRAS G12V, GppNHp-loaded; Table 11
T3 construct: Avi-KRAS G12V (1-169)
In short: as §1

[4] = biological target: T4, Avi-KRAS WT (1-169) GppNHp/RAF1 RBD-3xFLAG (52-151) (Homo sapiens, UniProt P01116); test: Raf1-KRAS WT-GppNHP disruption HTRF assay (Biological Example 1); format: binding; conditions: KRAS WT, GppNHp-loaded; Table 11
T4 construct: Avi-KRAS WT (1-169)
In short: as §1

[5] = test system: GP2d cells (KRAS G12D); test: Cell-based pERK HTRF assay in GP2d cell (Biological Example 2); conditions: GP2d (KRAS G12D) cells, pERK HTRF
In short: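 HTRF read-out of pERK (excitation 320 nm, emission 615 nm) after lysates sat 4–24 h at room temperature with Eu cryptate and d2 antibodies.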

T2 sequence (P01116 1-169 isoform P01116-2 G12R): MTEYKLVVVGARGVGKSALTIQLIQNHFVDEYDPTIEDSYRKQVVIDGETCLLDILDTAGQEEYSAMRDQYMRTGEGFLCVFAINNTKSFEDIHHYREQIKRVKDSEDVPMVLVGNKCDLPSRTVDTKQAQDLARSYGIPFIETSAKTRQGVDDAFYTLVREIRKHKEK
T4 sequence (P01116 1-169 isoform P01116-2): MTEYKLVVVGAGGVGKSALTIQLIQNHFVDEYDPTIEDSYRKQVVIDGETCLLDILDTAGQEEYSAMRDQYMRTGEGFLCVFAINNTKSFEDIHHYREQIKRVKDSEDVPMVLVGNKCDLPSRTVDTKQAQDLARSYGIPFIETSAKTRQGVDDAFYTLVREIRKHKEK
T1 sequence (P01116 1-169 isoform P01116-2 G12D): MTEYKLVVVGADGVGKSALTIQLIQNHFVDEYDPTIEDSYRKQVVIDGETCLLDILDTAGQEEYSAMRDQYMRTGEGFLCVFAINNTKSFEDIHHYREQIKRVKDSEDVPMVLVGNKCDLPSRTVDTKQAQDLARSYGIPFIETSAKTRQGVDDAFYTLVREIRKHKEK
T3 sequence (P01116 1-169 isoform P01116-2 G12V): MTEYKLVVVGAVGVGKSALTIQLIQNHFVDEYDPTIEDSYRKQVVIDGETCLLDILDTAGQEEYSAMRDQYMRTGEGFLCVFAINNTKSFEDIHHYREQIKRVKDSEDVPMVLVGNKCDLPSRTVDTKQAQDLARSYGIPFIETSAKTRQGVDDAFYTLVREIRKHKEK

Row | Compound | IC50 [1] | IC50 [2] | IC50 [3] | IC50 [4] | IC50 [5] | IC50 ([5]; GP2d)
1 | CS(=O)(=O)N1CCN(c2nc(OC[C@@]34CCCN3C[C@H](F)C4)nc3c(F)c(-c4ccc(F)c5sc(N)c(C#N)c45)c(C(F)(F)F)cc23)CC1 [Compound 96] | 1000 to 10000 nM | 1000 to 10000 nM | 1000 to 10000 nM | 1000 to 10000 nM |  | < 100 nM
2 | CC(=O)N1CCC(N(C)c2nc(OCC34CCCN3CC(F)C4)nc3c(F)c(-c4ccc(F)c5scc(C#N)c45)c(C(F)(F)F)cc23)C1 (stereo not drawn) [Compound 105] | > 10000 nM | > 10000 nM | > 10000 nM | > 10000 nM | > 1000 nM | 
3 | CN(c1nc(OC[C@@]23CCCN2C[C@H](F)C3)nc2c(F)c(-c3ccc(F)c4scc(C#N)c34)c(C(F)(F)F)cc12)[C@@H]1CCN(C(=O)CC#N)C1 [Compound 106] | > 10000 nM | > 10000 nM | > 10000 nM | > 10000 nM |  | > 1000 nM
4 | CN(c1nc(OC[C@@]23CCCN2C[C@H](F)C3)nc2c(F)c(-c3ccc(F)c4scc(C#N)c34)c(C(F)(F)F)cc12)[C@@H]1CCN(C(=O)CO)C1 [Compound 107] | > 10000 nM | > 10000 nM | > 10000 nM | > 10000 nM |  | > 1000 nM
5 | CN(c1nc(OC[C@@]23CCCN2C[C@H](F)C3)nc2c(F)c(-c3ccc(F)c4sc(N)c(C#N)c34)c(C(F)(F)F)cc12)[C@H]1CCN(S(C)(=O)=O)C1 [Compound 119] | 1000 to 10000 nM | 1000 to 10000 nM | 1000 to 10000 nM | 100 to 1000 nM |  | < 100 nM
6 | N#Cc1c(N)sc2c(F)ccc(-c3c(C(F)(F)F)cc4c(N5CCC(O)CC5)nc(OC[C@@]56CCCN5C[C@H](F)C6)nc4c3F)c12 [Compound 127] | 100 to 1000 nM | 100 to 1000 nM | 100 to 1000 nM | 100 to 1000 nM |  | < 100 nM
7 | N#Cc1c(N)sc2c(F)ccc(-c3c(C(F)(F)F)cc4c(N5CC6CCC(C5)C6O)nc(OC[C@@]56CCCN5C[C@H](F)C6)nc4c3F)c12 (stereo partly drawn) [Compound 128] | 100 to 1000 nM | 100 to 1000 nM | 1000 to 10000 nM | 100 to 1000 nM |  | < 100 nM
8 | N#Cc1c(N)sc2c(F)ccc(-c3c(C(F)(F)F)cc4c(N5CC(CO)C5)nc(OC[C@@]56CCCN5C[C@H](F)C6)nc4c3F)c12 [Compound 129] | 100 to 1000 nM | 100 to 1000 nM | 100 to 1000 nM | 100 to 1000 nM |  | < 100 nM
9 | N#Cc1c(N)sc2c(F)ccc(-c3c(C(F)(F)F)cc4c(N5CC6CCC(C5)O6)nc(OC[C@@]56CCCN5C[C@H](F)C6)nc4c3F)c12 [Compound 130] | 100 to 1000 nM | 100 to 1000 nM | 1000 to 10000 nM | 100 to 1000 nM |  | < 100 nM
10 | N#Cc1c(N)sc2c(F)ccc(-c3c(C(F)(F)F)cc4c(N5C6CCC5COC6)nc(OC[C@@]56CCCN5C[C@H](F)C6)nc4c3F)c12 [Compound 131] | 100 to 1000 nM | 100 to 1000 nM | 100 to 1000 nM | 100 to 1000 nM |  | < 100 nM

The remaining lines, values ahead:

Row | IC50 [1] | IC50 [2] | IC50 [3] | IC50 [4] | IC50 [5] | IC50 ([5]; GP2d) | Compound
11 | 100 to 1000 nM | 100 to 1000 nM | 100 to 1000 nM | 100 to 1000 nM | < 100 nM |  | CN(c1nc(OC[C@@]23CCCN2C[C@H](F)C3)nc2c(F)c(-c3ccc(F)c4sc(N)c(C#N)c34)c(C(F)(F)F)cc12)[C@@H]1CCN(S(C)(=O)=O)C1 [Compound 95]
12 | 100 to 1000 nM | 100 to 1000 nM | 1000 to 10000 nM | 100 to 1000 nM |  | < 100 nM | CC(=O)N1CCN(c2nc(OC[C@@]34CCCN3C[C@H](F)C4)nc3c(F)c(-c4ccc(F)c5sc(N)c(C#N)c45)c(C(F)(F)F)cc23)CC1 [Compound 100]
13 | 100 to 1000 nM | 100 to 1000 nM | 1000 to 10000 nM | 100 to 1000 nM |  | < 100 nM | N#Cc1c(N)sc2c(F)ccc(-c3c(C(F)(F)F)cc4c(N5CCN(C(=O)CO)CC5)nc(OC[C@@]56CCCN5C[C@H](F)C6)nc4c3F)c12 [Compound 101]
14 | 100 to 1000 nM | 100 to 1000 nM | 100 to 1000 nM | 100 to 1000 nM |  | < 100 nM | CCC(=O)N1CC[C@@H](N(C)c2nc(OC[C@@]34CCCN3C[C@H](F)C4)nc3c(F)c(-c4ccc(F)c5sc(N)c(C#N)c45)c(C(F)(F)F)cc23)C1 [Compound 113]
15 | 100 to 1000 nM | 100 to 1000 nM | 100 to 1000 nM | 100 to 1000 nM |  | < 100 nM | CC(=O)N1CCC(N(C)c2nc(OC[C@@]34CCCN3C[C@H](F)C4)nc3c(F)c(-c4ccc(F)c5sc(N)c(C#N)c45)c(C(F)(F)F)cc23)[C@H]1C (stereo partly drawn) [Compound 114]
16 | 100 to 1000 nM | 100 to 1000 nM | 100 to 1000 nM | 100 to 1000 nM |  | < 100 nM | CCC(=O)N1CC[C@@H](N(C)c2nc(OC[C@@]34CCCN3C[C@H](F)C4)nc3c(F)c(-c4ccc(F)c5sc(N)c(C#N)c45)c(C(F)(F)F)cc23)[C@H]1C [Compound 116]
17 | 100 to 1000 nM | 100 to 1000 nM | 100 to 1000 nM | 100 to 1000 nM |  | < 100 nM | COC[C@@H]1[C@H](N(C)c2nc(OC[C@@]34CCCN3C[C@H](F)C4)nc3c(F)c(-c4ccc(F)c5sc(N)c(C#N)c45)c(C(F)(F)F)cc23)CCN1C(C)=O [Compound 117]
18 | 100 to 1000 nM | 100 to 1000 nM | 100 to 1000 nM | 100 to 1000 nM |  | < 100 nM | CCN(c1nc(OC[C@@]23CCCN2C[C@H](F)C3)nc2c(F)c(-c3ccc(F)c4sc(N)c(C#N)c34)c(C(F)(F)F)cc12)[C@@H]1CCN(C(C)=O)[C@@H]1COC [Compound 118]
19 | 100 to 1000 nM | 100 to 1000 nM | 100 to 1000 nM | 100 to 1000 nM |  | < 100 nM | CCCN(C)c1nc(OC[C@@]23CCCN2C[C@H](F)C3)nc2c(F)c(-c3ccc(F)c4sc(N)c(C#N)c34)c(C(F)(F)F)cc12 [Compound 120]
20 | 100 to 1000 nM | 100 to 1000 nM | 100 to 1000 nM | 100 to 1000 nM |  | 100 to 1000 nM | N#Cc1c(N)sc2c(F)ccc(-c3c(C(F)(F)F)cc4c(N5CCN(CCO)C(=O)C5)nc(OC[C@@]56CCCN5C[C@H](F)C6)nc4c3F)c12 [Compound 121]
21 | 100 to 1000 nM | 100 to 1000 nM | 100 to 1000 nM | 100 to 1000 nM |  | < 100 nM | N#Cc1c(N)sc2c(F)ccc(-c3c(C(F)(F)F)cc4c(N5CC[C@H](CO)C5)nc(OC[C@@]56CCCN5C[C@H](F)C6)nc4c3F)c12 [Compound 123]
22 | 100 to 1000 nM | 100 to 1000 nM | 100 to 1000 nM | 100 to 1000 nM |  | 100 to 1000 nM | N#Cc1c(N)sc2c(F)ccc(-c3c(C(F)(F)F)cc4c(N5CC[C@@H](CO)C5)nc(OC[C@@]56CCCN5C[C@H](F)C6)nc4c3F)c12 [Compound 124]
23 | 100 to 1000 nM | 100 to 1000 nM | 100 to 1000 nM | 100 to 1000 nM |  | < 100 nM | N#Cc1c(N)sc2c(F)ccc(-c3c(C(F)(F)F)cc4c(N5CC[C@H](O)C5)nc(OC[C@@]56CCCN5C[C@H](F)C6)nc4c3F)c12 [Compound 125]
24 | 100 to 1000 nM | 100 to 1000 nM | 100 to 1000 nM | 100 to 1000 nM |  | < 100 nM | N#Cc1c(N)sc2c(F)ccc(-c3c(C(F)(F)F)cc4c(N5CC[C@@H](O)C5)nc(OC[C@@]56CCCN5C[C@H](F)C6)nc4c3F)c12 [Compound 126]
